Reference: patent US20120319032A1, “Biodegradable, Frost Proof Heat-Transfer Fluid, Use Thereof In Near-Surface Geothermal Installations, And A Concentrate For Preparing Same” (priority 2010, published 2012)
Read-outs that look alike come from different tables or passages of the source.

Key:
[1] = OECD 301A, manufacturer safety data sheet, cited from earlier work
[2] = shown in studies (Geothermics 36 (2007) 348 - 361); cited from earlier work
[3] = 301D; 28 d; Research report 200 24 233 UBA-FB 000298; cited from earlier work
[4] = 302B; 28 d; Research report 200 24 233 UBA-FB 000298; cited from earlier work
[5] = OECD 301B, manufacturer safety data sheet, cited from earlier work
[6] = Biodegradability, test method OECD 301 B; details: in-house measurement
Description: The biodegradability of the inventive composition and constituents thereof is determined according to the OECD Guidelines for Testing of Chemicals 301 and 311.
The corrosion inhibitor or, if more than one corrosion inhibitor is used, all corrosion inhibitors used have good biodegradability (are “readily degradable”) according to the respectively applicable test method OECD 301 A (for water-soluble corrosion inhibitors) or OECD 301 B (for sparingly water-soluble corrosion inhibitors), each in the version dated Jul. 17, 1992. Good biodegradability is defined in point 10 of OECD 301.

CC(O)CO (centres unmarked) [1,2-propylene glycol]
Degradability ([1]; duration not given): >70% | Assessment of degradability [1]: good | Biodegradability [2]: good

c1ccc2[nH]nnc2c1 [Benzotriazole]
Degradability [3]: 0% (28 d) | Degradability [4]: 12% (28 d)

CC(C)CCCCCC(=O)O [Inhibitor A, isononanoic acid]
Degradability ([5]; 25 d): approx. 63% | Assessment of degradability [5]: moderately

CCCCC(CC)C(=O)O (centres unmarked) [Inhibitor B, 2-ethylhexanoic acid]
Degradability ([5]; 25 d): approx. 90% | Assessment of degradability [5]: good

O=C(O)CCCCCCCCC(=O)O [Inhibitor C, sebacic acid]
Degradability ([6]; 25 d): >80% (25 d) | Assessment of degradability [6]: good

CC(C)CCCCCC(=O)NCCCCCC(=O)O [Inhibitor X]
Degradability ([5]; 15 d): >90% (15 d) | Assessment of degradability [5]: good

OCCO [ethylene glycol]
Biodegradability [2]: good
